# Columns and labels:
# MCF-7 xenografts = assay type: in vivo; conditions: adriamycin 2 mg/kg or flavopiridol 15 mg/kg alone, i.p.
# From the text: Each complete cycle was separated by 2 d without treatment.
# This test generates a P value testing the null hypothesis that the survival curves are identical in the overall populations.
# p34^cdc2 = target: T1, p34^cdc2 (Homo sapiens, UniProt P06493); experiment: H1 phosphorylation by p34^cdc2 immunoprecipitated from treated HeLa cells; assay type: cell-based; conditions: increasing concentrations of flavopiridol, 24 h
# T1 construct: endogenous in cells; host or cells: HeLa cervical carcinoma cells (ATCC)
# Method: (§1) A. In vitro kinase assay. […] Radioactive bands were detected by autoradiography. […] The immune complexesb were analyzed by Western blotting (WB) with an antibody to Thr^34-phosphorylated survivin (a-survivinT34*, top panel) or with an antibody to survivin (a-survivin, lower panel) followed by chemiluminescence. For all panels, relative molecular weight markers in kDa are shown on the left.
# (§2) In some experiments, total RNA was extracted from MCF-7 cells at various time intervals after adriamycin treatment, and hybridized with 32 P-labeled survivin cDNA as described previously. Radioactive bands were detected by autoradiography. […] In other experiments, samples were transferred to nylon membranes and analyzed by Western blotting with antibodies to p34^cdc2 (1 μg/ml), survivin (2 μg/ml), or survivinT34* (5 μg/ml).
# [1] = test system: survivin expression in HeLa cells; experiment: Survivin expression by Western blotting in HeLa cells; assay type: cell-based, human
# Method: (§3) Cell Cultures, Proteins and Antibodies: Breast carcinoma MCF-7 and cervical carcinoma HeLa cells (American Type Culture Collection, Manassas, Va.) were maintained in culture according to the manufacturer's specifications. For treatment with genotoxic agents, HeLa or MCF-7 cells were incubated with vehicle (DMSO) or taxol (2 μM, Sigma Chemical Co., St. Louis, Mo.), adriamycin (100 nM, Sigma), cis-platin (3 μM, Sigma) or subjected to ultraviolet B (UVB) irradiation at 50 or 300 J/m^2. In some experiments, HeLa or MCF-7 treated with taxol, adriamycin or UVB as described above were incubated with inhibitors of transcription (actinomycin D, 1 μg/ml) or translation (cycloheximide, 2 mg/ml) before determination of protein expression by Western blotting. […] A replication-deficient adenovirus encoding wild type survivin (pAd-Survivin) or control encoding Green Fluorescence Protein (pAd-GFP) was generated using the pAd-Easy system as described previously (M. Mesri et al. (2001) J. Clin. Invest. 108: 981-90), and propagated in HEK293 cells with purification by CsCl banding. […] Antibodies to p34^cdc2 or bcl-2 were obtained from Pharmingen (San Diego, Calif.) and R&D, respectively. An antibody to β-actin was from Sigma and antibodies to MPM-2 mitotic phosphoproteins was from Upstate Biotechnology (Lake Placid, N.Y.).
# as §2
# In other experiments, HeLa cells were treated with taxol (0.2 μM) for 16 h followed by the DNA damaging agent adriamycin (100 nM, Sigma) or the nucleoside analog 5-Fluorouracil (500 μM, Sigma) for 8-32 h at 37° C. […] In some experiments, HeLa cells were transfected by lipofectamine with a minimal survivin promoter construct upstream of a luciferase reporter gene (pLuc-cyc1.2), as described (F. Li et al. (1998) Nature 396: 580-584). Cells were treated with taxol (2 μM) or UVB (50 J/m2), and analyzed for changes in luciferase activity at increasing time intervals (12-36 h) in a luminometer. Luciferase values were normalized to β-galactosidase expression. […] The immune complexes were separated by SDS gel electrophoresis and analyzed with antibodies to survivin or a-survivinT34* by Western blotting.
# [2] = test system: survivin phosphorylation on Thr^34 in MCF-7 cells; experiment: Survivin phosphorylation on Thr^34 in MCF-7 cells; assay type: cell-based, human; conditions: flavopiridol in the presence of 100 nM adriamycin
# Method: as §2
# [3] = test system: p34^cdc2 kinase activity (MPM-2 epitope) in HeLa cells; experiment: MPM-2 mitotic phosphoepitope expression (p34^cdc2 kinase activity) in HeLa cells; assay type: cell-based, human; conditions: HeLa
# HeLa cells = experiment: Apoptosis by DNA content analysis and flow cytometry in HeLa cells; assay type: cell-based, human; conditions: increasing flavopiridol concentrations, 48 h
# [4] = test system: survivin phosphorylation on Thr^34 in HeLa cells; experiment: Survivin phosphorylation on Thr^34 in HeLa cells (immunoprecipitation, Western blotting); assay type: cell-based, human; conditions: increasing concentrations of flavopiridol, 24 h
# Method: as §1, §2
# Luciferase values were normalized to β-galactosidase expression.
# [5] = test system: survivin expression in MCF-7 cells; experiment: Survivin expression by Western blotting in MCF-7 cells; assay type: cell-based, human
# Method: as §3, §2
# [6] = test system: Bcl-2 expression in HeLa cells; experiment: Bcl-2 expression by Western blotting in HeLa cells; assay type: cell-based, human; conditions: flavopiridol, 48 h
# Method: A. Concentration-dependence. […] B. Time-course. […] C. […] The experimental conditions are the same as in A, except that flavopiridol-treated HeLa cells were analyzed by Western blotting with an antibody to Bcl-2. D. Effect of genistein or TNF a on survivin expression. HeLa cells were treated with the tyrosine kinase inhibitor genistein (25 μM) or TNF a (5 ng/ml) for 48 h, harvested and analyzed for survivin expression by Western blotting. For all panels, relative molecular weight markers in kDa are shown on the left. E. Flavopiridol-induced apoptosis. […] The percentage of apoptotic cells with sub-G1DNA content is indicated. Insert, nuclear morphology of apoptosis (DNA fragmentation, chromatin condensation) in untreated or flavopiridol-treated HeLa cells, by DAPI staining.
# as §2
# p34^cdc2-cyclin B1 = p34^cdc2-cyclin B1 (Homo sapiens, UniProt P06493); experiment: In vitro kinase assay with baculovirus-expressed p34^cdc2-cyclin B1; assay type: biochemical; conditions: 100 nM flavopiridol
# Method: as §1, §2
# Sequence of p34^cdc2-cyclin B1 (P06493 whole entry): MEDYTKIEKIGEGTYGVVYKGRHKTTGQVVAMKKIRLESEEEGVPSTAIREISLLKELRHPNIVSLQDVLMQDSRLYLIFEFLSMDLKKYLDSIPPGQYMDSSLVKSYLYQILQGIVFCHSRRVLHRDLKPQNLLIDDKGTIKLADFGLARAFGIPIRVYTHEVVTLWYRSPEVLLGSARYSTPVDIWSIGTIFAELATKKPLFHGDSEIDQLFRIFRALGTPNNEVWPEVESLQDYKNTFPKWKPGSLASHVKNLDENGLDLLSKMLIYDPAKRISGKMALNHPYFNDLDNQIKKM
# Sequence of p34^cdc2-cyclin B1 (P14635 whole entry partner): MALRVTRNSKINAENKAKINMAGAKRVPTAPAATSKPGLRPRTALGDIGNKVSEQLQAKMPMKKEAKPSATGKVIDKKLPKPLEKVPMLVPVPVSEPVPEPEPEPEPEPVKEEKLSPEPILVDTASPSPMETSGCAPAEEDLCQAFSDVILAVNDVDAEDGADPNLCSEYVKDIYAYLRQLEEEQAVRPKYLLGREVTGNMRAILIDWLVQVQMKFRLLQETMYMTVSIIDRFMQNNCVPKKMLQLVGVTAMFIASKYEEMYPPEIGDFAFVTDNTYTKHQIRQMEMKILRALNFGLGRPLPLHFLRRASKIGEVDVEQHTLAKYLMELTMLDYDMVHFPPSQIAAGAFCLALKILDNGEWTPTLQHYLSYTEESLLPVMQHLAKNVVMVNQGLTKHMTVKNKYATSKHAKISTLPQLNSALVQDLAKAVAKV
# T1 sequence (P06493 whole entry): as the sequence (P06493 whole entry) above
# T1 sequence (P14635 whole entry partner): as the sequence (P14635 whole entry partner) above
smiles,measurement,setting,value
CN1CC[C@H](c2c(O)cc(O)c3c(=O)cc(-c4ccccc4Cl)oc23)[C@H](O)C1 [flavopiridol],kinetics of tumor growth vs vehicle,MCF-7 xenografts,did not affect the kinetics of tumor growth
same,H1 phosphorylation by immunoprecipitated p34^cdc2,p34^cdc2,dose-dependent inhibition of H1 phosphorylation
same,survivin expression,[1]; 1 and 25 nM flavopiridol and between 12 and 72 hours,modest increase in survivin expression
same,survivin expression,"[1]; flavopiridol 100 nM, 84-96 h treatment",Nearly complete loss of survivin expression
same,survivin expression,"[1]; higher flavopiridol concentrations, 24 h",complete loss of survivin expression
same,"survivin expression, concentration dependence","[1]; increasing flavopiridol concentrations, 48 h",concentration-dependent decrease in survivin expression
same,survivin phosphorylation on Thr^34,[2],suppressed survivin phosphorylation on Thr^34
same,MPM-2 mitotic phosphoepitope expression,"[3]; taxol 0.2 μM 16 h then Cdk inhibitor for 16 h (Purvalanol A 10 μM, alsterpaullone 20 μM, flavopiridol 250 nM, olomoucine 400 μM)",partially inhibited MPM-2 expression
same,MPM-2 mitotic phosphoepitope expression,[3]; taxol 0.2 μM 16 h then Cdk inhibitor for 32 h,suppressed mitotic phosphoprotein expression
same,population with hypodiploid (apoptotic) DNA content,HeLa cells,concentration-dependent increase in the population with hypodiploid (apoptotic) DNA content
same,survivin phosphorylation on Thr^34,[4],concentration-dependent inhibition of phosphorylation on Thr^34
same,survivin levels,"[5]; anti-cancer agents (adriamycin, UVB) 18 h followed by flavopiridol 72 h",suppressed survivin levels to background values of untreated cultures
same,survivin levels,[5]; flavopiridol alone 100 nM for 72 h,did not significantly affect survivin levels
same,Bcl-2 expression,[6],did not affect expression of antiapoptotic Bcl-2
same,phosphorylation of H1 and wild type survivin by p34^cdc2-cyclin B1,p34^cdc2-cyclin B1,suppressed phosphorylation of H1 and wild type survivin

# — patent publication US6949558B2, “Enhancement of taxane-based chemotherapy by a CDK1 antagonist” (Yale University, priority 2001, dated 2005)
